Results from US20050060764A1, “Mouse model for bone metabolism” (priority 2003, published 2005).
Strand notation (5' to 3'): a small letter for the sugar, then the base; units joined by * are phosphorothioate-linked, units joined directly phosphodiester-linked; [ ] holds rarer units or linkages, { } end groups; capitals alone tell only the bases. e = 2'-O-(2-methoxyethyl) (MOE); [5mC] = 5-methylcytosine; d = 2'-deoxy (DNA)

Key:
[1] = Serum calcium concentration 24 hours after PTH infusion in mice treated with RANKL antisense oligonucleotides (Table 10); assay type: in vivo, mouse; conditions: mice; PTH infusion; n=8
Description: In accordance with the present invention, the effect of antisense oligonucleotide inhibition on PTH-induced serum calcium concentration increase was measured in mice. The serum calcium concentration in mice was measured as a function of antisense oligonucleotide dose. Calcitonin, a known bone antiresorptive agent, was used as a control for antiresorptive activity.
Female Swiss-Webster (5-8 wks old) mice fed a low-calcium diet were dosed subcutaneously for two weeks with either the oligonucleotides ISIS 180819 (SEQ ID NO: 185) or 180814 (SEQ ID NO: 180) at concentrations of 5 mg/kg, 15 mg/kg, 30 mg/kg, or 40 mg/kg. A control group of mice were treated with calcitonin (400 ng) plus PTH (1 ug/100 g/6 hr), PTH alone (1 ug/100 g/6 hr) or saline. Treatment with oligonucleotides was followed with infusion of PTH by subcutaneously implanted mini-pumps at a dose of 1 ug/100 g/6 hr. After 24 hours of PTH infusion (total PTH delivery of 4 ug/100 g), the mice were sacrificed and the serum calcium concentration was measured with the Sigma Diagnostics Calcium Kit (Sigma-Aldrich). The data, summarized in Table 10 are averages from eight mice. Percent mRNA inhibition is normalized to PTH alone treatment.

mouse RANKL mRNA [2] = assay: Antisense inhibition of mouse RANKL mRNA in C2C12 cells: dose response (Table 5); assay type: cell-based; conditions: relative to untreated control
Description: Cells were seeded into 24-well plates (Falcon-353047 at a density of ˜10,000 cells/cm^2 for use in antisense oligonucleotide transfection.
Cells are treated and data are obtained in triplicate. […] Cells were harvested 16-24 hours after oligonucleotide treatment.
Probes and primers to mouse RANKL were designed to hybridize to a mouse RANKL sequence, using published sequence information (GenBank accession number AF013170.1, incorporated herein as SEQ ID NO:ll). For mouse RANKL the PCR primers were: • forward primer: […] (SEQ ID NO:12) • reverse primer: […] (SEQ ID NO: 13) and • the PCR probe was: FAM-[…]-TAMRA (SEQ ID NO: 14) where FAM is the fluorescent reporter dye and TAMRA is the quencher dye. For mouse GAPDH the PCR primers were: • forward primer: […](SEQ ID NO:15) • reverse primer: […](SEQ ID NO:16) and the • PCR probe was: 5′ JOE-[…]-TAMRA 3′ (SEQ ID NO: 17) where JOE is the fluorescent reporter dye and TAMRA is the quencher dye.
In accordance with the present invention, a subset of the antisense oligonucleotides in Example 16 was further investigated in dose-response studies. The oligonucleotides used in this investigation were ISIS 180812 (SEQ ID NO: 178), ISIS 180814 (SEQ ID NO: 180), ISIS 180819 (SEQ ID NO: 185), ISIS 180828 (SEQ ID NO: 194) and the control oligonucleotide ISIS 101757 ([…], SEQ ID NO: 355). […] All cytidine residues are 5-methylcytidines.
C2C12 cells were treated with the oligonucleotides at 10, 50, 75, 100, and 150 nM as described in other examples herein. […] The results are expressed as percent inhibition relative to the untreated control. The data, shown in Table 5, are averages from two experiments and illustrate the oligonucleotides of the present invention are able to downregulate RANKL mRNA expression in a dose-dependent manner.

mouse RANKL mRNA [3] = assay: Antisense inhibition of mouse RANKL mRNA levels in C2C12 cells, quantitative real-time PCR (Table 2); assay type: cell-based; set-up: concentration or dose not given beside the values; conditions: averages from three experiments
Outline: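 C2C12 cells seeded at ~10,000 cells/cm^2, treated with antisense oligonucleotides (all C as 5-methylcytidine) in triplicate and harvested 16-24 h later. Mouse RANKL mRNA quantified by real-time RT-PCR with a FAM/TAMRA probe, with mouse GAPDH (JOE/TAMRA probe) as reference.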

[4] = Serum calcium concentration after PTH infusion in mice: specificity and dose response of RANK antisense oligonucleotide (Table 15); assay type: in vivo, mouse; conditions: for serum calcium: then 24 h PTH
Description: (§1) In accordance with the present invention, the specificity of RANK inhibition by a RANK antisense oligonucleotide was compared to that of an 8-base pair mismatch oligonucleotide.
(§2) ISIS 181080 ([…], SEQ ID NO: 357) is an antisense oligonucleotide targeted to mouse RANK. ISIS 208565 ([…], SEQ ID NO: 358) is an 8-base pair mismatch oligonucleotide. […] All cytidine residues are 5-methylcytidines.
(§3) Female Swiss-Webster mice (5-8 wks old) fed a low-calcium diet were treated for two weeks with either ISIS 181080 or ISIS 208565. The dose of oligonucleotide was either 40 mg/kg, 30 mg/kg, 20 mg/kg, or 10 mg/kg. After the 2-week treatment with oligonucleotides, the mice were infused with PTH by subcutaneously implanted mini-pumps at a dose of 4 ug/100 g over 24 hours. A group of control mice were dosed with either saline, PTH alone (1 ug/100 g/6 hr) or calcitonin (400 ng) plus PTH (1 ug/100 g/6 hr). After 24 hours of PTH infusion (total PTH delivery of 4 ug/100 g), the mice were sacrificed and measurements were made of serum calcium with the Sigma Diagnostics Calcium Kit (Sigma-Aldrich) and RANK mRNA expression in proximal tibia (as described in other examples herein). The results shown in Table 15 are the average from four mice per group. Percent inhibition of RANK mRNA is normalized to PTH treatment alone. […] The data also illustrate that these effects are occurring due to an antisense mechanism.

RANK mRNA = assay: Antisense inhibition of RANK mRNA expression in proximal tibia after PTH infusion in mice: specificity and dose response (Table 15); assay type: in vivo, mouse; conditions: for RANK mRNA % inhibition (normalized to PTH): then 24 h PTH, proximal tibia
Description: as §1, §2, §3

[5] = mice, two weeks 10, 20, 30 or 40 mg/kg, 24 hours PTH infusion

Substance | inhibition of PTH-induced serum calcium concentration [1] [% inhibition] | % Inhibition of RANKL mRNA (mouse RANKL mRNA [2]; 10 nM oligonucleotide) [%] | % Inhibition of RANKL mRNA (mouse RANKL mRNA [2]; 50 nM oligonucleotide) [%] | % Inhibition of RANKL mRNA (mouse RANKL mRNA [2]; 75 nM oligonucleotide) [%] | % Inhibition of RANKL mRNA (mouse RANKL mRNA [2]; 100 nM oligonucleotide) [%] | % Inhibition of RANKL mRNA (mouse RANKL mRNA [2]; 150 nM oligonucleotide) [%] | % INHIB (inhibition of mouse RANKL mRNA levels) (mouse RANKL mRNA [3]) [%] | serum calcium ([4]; 10 mg/kg two weeks) [mg/dL] | serum calcium ([4]; 20 mg/kg two weeks) [mg/dL] | serum calcium ([4]; 30 mg/kg two weeks) [mg/dL] | serum calcium ([4]; 40 mg/kg two weeks) [mg/dL] | PTH-induced rise in serum calcium concentration [4, 5] | RANK mRNA % inhibition (normalized to PTH) (RANK mRNA; 10 mg/kg two weeks) [%] | RANK mRNA % inhibition (normalized to PTH) (RANK mRNA; 20 mg/kg two weeks) [%] | RANK mRNA % inhibition (normalized to PTH) (RANK mRNA; 30 mg/kg two weeks) [%] | RANK mRNA % inhibition (normalized to PTH) (RANK mRNA; 40 mg/kg two weeks) [%] | expression of RANK mRNA in proximal tibia (RANK mRNA; [5])
calcitonin [reference compound] | 66 | – | – | – | – | – | – | – | – | – | – | – | – | – | – | – | –
180828 (antisense eT*eT*eT*eA*eT*dT*dT*dT*dG*d[5mC]*dT*dT*dG*d[5mC]*dA*eT*eA*eG*eT*eT) [compound 180828] | – | 31 | 43 | 23 | 31 | 40 | 44 | – | – | – | – | – | – | – | – | – | –
GAGCTCCCGGACCCTGAGGC (listed as DNA, chemistry not given here) [ISIS 181080, antisense oligonucleotide targeted to mouse RANK] | – | – | – | – | – | – | – | 23 | 17 | 15 | 16 | lessens the PTH-induced rise in serum calcium concentration | 47 | 38 | 48 | 65 | inhibits expression of RANK mRNA in vivo
180812 (antisense eT*e[5mC]*e[5mC]*eG*eG*dA*dT*d[5mC]*d[5mC]*dA*dG*d[5mC]*dA*dG*dG*eG*eA*eA*eG*eG) [compound 180812] | – | 0 | 5 | 13 | 20 | 45 | 47 | – | – | – | – | – | – | – | – | – | –
TCCTCGAGAGGTCTCCTTGC (antisense eT*e[5mC]*e[5mC]*eT*e[5mC]*dG*dA*dG*dA*dG*dG*dT*d[5mC]*dT*d[5mC]*e[5mC]*eT*eT*eG*e[5mC]) [ISIS 208565, 8-base pair mismatch oligonucleotide, 2′-MOE gapmer, reference compound] | – | – | – | – | – | – | – | 21 | 17 | 18 | 16 | – | 0 | 0 | 19 | 7 | –
